Source: patent publication US8084621B2, “3-Pyrrolo[b]cyclohexylene-2-dihydroindolinone derivatives and uses thereof” (Jiangsu Simcere Pharmaceutical R&D Co. Ltd., priority 2006, dated 2011)

Target: T1, VEGFR-2 (Homo sapiens, UniProt P35968)
T1 construct: purchased Cell Signaling Technology CO
Assay: Protein kinase activity by ELISA in vitro, VEGFR-2
Type: biochemical
Conditions: read-out: IC50 of the VEGF Receptor Kinase
Protocol: An ELISA (Enzyme-Linked Immunosorbent Sandwich Assay) procedure may be used to detect and measure the level of protein tyrosine kinase activity. […] According to the principle of ELISA, a monoclonal antibody can react with phosphorylated substrate specially, so biotin-labeled substrate is binded to streptavidin-coated ELISA plate, and then binded to a HRP-labeled goat anti-mouse antibody. Finally TMB is added for a color reaction and the value of A450-A630 is read by ELISA plate reader. The OD value can reflect the inhibitory activity of the VEGFR-2, PDGFR-β, c-Kit tyrosine kinases etc. treated with the test compounds at the different concentrations. So, the assay may be used to measure the inhibition ratio of the compounds for the tyrosine kinase activity. Similar assays can be designed along the same lines for any PK using techniques well known in the art.
According to the principle of ELISA, a monoclonal antibody can react with phosphorylated substrate specially, so biotin-labeled substrate is binded to streptavidin-coated ELISA plate, and then binded to a HRP-labeled goat anti-mouse antibody. Finally TMB is added for a color reaction and the value of A450-A630 is read by ELISA plate reader. The OD value can reflect the inhibitory activity of the VEGFR-2, PDGFR-β c-Kit tyrosine kinases treated with the test compounds at the different concentrations. So, the assay may be used to measure the inhibition ratio of the compounds for the tyrosine kinase activity. Similar assays can be designed along the same lines for any PK using techniques well known in the art.
VEGF Receptor 2, PDGF Receptor-beta and c-kit kinase assay kit (include kinase, 1.25M DTT, substrate peptide, 10 mM ATP, P-Tyr-100 Mouse antibody, 4×HTScan tyrosine kinase buffer), Cell Signaling Technology CO.; HRP labeled goat anti mouse IgG, Protein Tech CO.; TMB, Pierce CO.; Streptavidin Microtitration Plate, Greiner Bio-one CO.; Infinite M200 Reader, Tecan CO.
1.2.1 Immediately transfer enzyme from −80° C. to ice. Allow enzyme to thaw on ice then at 4° C. and centrifugate transiently to the bottom of centrifuge tube, then lay back on ice quickly
1.2.2 Add 10 μl of DTT (1.25 M) to 2.5 ml of 4×HTScan tyrosine kinase buffer (240 mM HEPES pH 7.5, 20 mM MgCl2, 20 mM MnCl2, 12 μM Na3VO4). Transfer 0.6 ml of DTT/Kinase buffer to each enzyme tube to make 4× reaction Cocktail. Incubate 12.5 μl of the 4× reaction cocktail with 12.5 μl/well prediluted compound of interest for 5 minutes at room temperature, and set blank control, free-enzyme control, negative control and positive control. 1.2.3 Add 10 μl 10 mM ATP to 1.25 ml 6 μM substrate peptide. Dilute the mixture with dH20 to 2.5 ml to make 2×ATP/substrate cocktail. Add 25 μl of 2×ATP/substrate cocktail to 25 μl/well preincubated reaction cocktail/compound. Incubate reaction plate at room temperature for 30 minutes. 1.2.4 Add 50 μl/well stop Buffer (50 mM EDTA, pH 8) to stop the reaction. Transfer 25 μl of each reaction and 75 μl dH2O/well to a 96-well streptavidin coated plate and incubate at room temperature for 60 minutes. Wash three times with 200 μl/well PBS/T(1×PBS, 0.05% Tween-20). 1.2.5 Dilute primary antibody, Phospho-Tyrosine mAb (P-Tyr-100), 1:500 in PBS/T with 1% BSA. Add 100 μl/well primary antibody. Incubate at room temperature for 60 minutes. Wash three times with 200 μl/well PBS/T(1×PBS, 0.05% Tween-20). 1.2.6 Prepare appropriate dilution of HRP labeled secondary antibody, 1:500 in PBS/T with 1% BSA. Add 100 μl/well secondary antibody solution. Incubate at room temperature for 30 minutes. Wash five times with 200 μl/well PBS/T 1.2.7 Add 100 μl/well TMB substrate and incubate at room temperature for 1-10 minutes. Add 50 μl 2M H2SO4 to stop the color reaction. Read the absorbance of A450-A630 with the Infinite M200 microtiter plate reader. 1.2.8 Calculate the inhibition ratio with the following formula: […]

T1 sequence (P35968 20-1356): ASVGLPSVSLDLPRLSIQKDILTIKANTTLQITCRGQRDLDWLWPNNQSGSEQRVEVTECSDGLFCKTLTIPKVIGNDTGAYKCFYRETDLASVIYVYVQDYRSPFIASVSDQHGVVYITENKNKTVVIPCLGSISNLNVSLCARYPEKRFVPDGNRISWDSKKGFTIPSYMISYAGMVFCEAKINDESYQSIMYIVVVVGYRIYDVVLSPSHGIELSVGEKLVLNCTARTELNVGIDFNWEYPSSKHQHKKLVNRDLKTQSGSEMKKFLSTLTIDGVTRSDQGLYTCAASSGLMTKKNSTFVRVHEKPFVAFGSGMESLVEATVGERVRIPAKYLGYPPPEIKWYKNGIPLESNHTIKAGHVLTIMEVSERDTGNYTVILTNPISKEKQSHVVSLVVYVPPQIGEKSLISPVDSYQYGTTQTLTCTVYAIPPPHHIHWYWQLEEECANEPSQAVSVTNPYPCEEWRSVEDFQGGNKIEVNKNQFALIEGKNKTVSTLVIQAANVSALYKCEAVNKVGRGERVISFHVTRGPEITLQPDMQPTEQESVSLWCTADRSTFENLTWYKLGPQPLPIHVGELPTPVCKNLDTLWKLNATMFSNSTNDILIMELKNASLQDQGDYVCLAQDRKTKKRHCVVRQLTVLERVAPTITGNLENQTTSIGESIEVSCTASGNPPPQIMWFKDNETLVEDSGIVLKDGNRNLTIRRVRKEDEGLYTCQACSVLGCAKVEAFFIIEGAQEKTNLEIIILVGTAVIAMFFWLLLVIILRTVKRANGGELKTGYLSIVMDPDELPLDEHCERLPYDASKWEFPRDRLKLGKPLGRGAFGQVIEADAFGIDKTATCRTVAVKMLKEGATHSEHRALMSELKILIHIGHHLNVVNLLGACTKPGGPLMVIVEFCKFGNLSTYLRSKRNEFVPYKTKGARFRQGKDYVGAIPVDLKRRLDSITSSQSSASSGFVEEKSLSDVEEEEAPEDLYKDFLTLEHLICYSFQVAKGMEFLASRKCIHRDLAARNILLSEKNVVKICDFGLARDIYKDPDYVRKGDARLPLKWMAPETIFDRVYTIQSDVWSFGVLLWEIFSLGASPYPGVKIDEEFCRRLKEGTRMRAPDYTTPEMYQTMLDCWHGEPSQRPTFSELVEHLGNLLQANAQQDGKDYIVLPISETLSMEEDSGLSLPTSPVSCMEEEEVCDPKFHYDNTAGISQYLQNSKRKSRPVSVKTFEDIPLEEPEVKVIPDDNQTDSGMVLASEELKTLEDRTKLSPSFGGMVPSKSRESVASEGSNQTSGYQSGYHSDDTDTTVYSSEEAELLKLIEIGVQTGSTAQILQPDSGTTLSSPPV

Compound | IC50
CCN(CC)CCNC(=O)c1c(C)[nH]c2c1CCC/C2=C1/C(=O)Nc2c(F)cccc21 [I-40, N-(2-(diethylamino)ethyl)-2-methyl-7-[1,2-dihydro-7-fluoro-2-oxo-3H-indol-(Z)-3-ylidene]-4,5,6,7-tetrahydro-1H-indole-3-carboxamide] | 82 nM
CCN(CC)CCNC(=O)c1c(C)[nH]c2c1CCC/C2=C1/C(=O)Nc2ccc(S(=O)(=O)NC)cc21 [I-55, N-(2-(diethylamino)ethyl)-2-methyl-7-[N-methyl-1,2-dihydro-2-oxo-3H-indol-5-sulfonamide-(Z)-3-ylidene]-4,5,6,7-tetrahydro-1H-indole-3-carboxamide] | 19 nM
Cc1[nH]c2c(c1C(=O)N1CCC[C@H]1CN1CCCC1)CCC/C2=C1/C(=O)Nc2ccc(F)cc21 [I-60] | 14 nM
Cc1[nH]c2c(c1C(=O)NCCCN1CCOCC1)CCC/C2=C1/C(=O)Nc2ccc(F)cc21 [I-21, N-(3-morpholinopropyl)-2-methyl-7-[1,2-dihydro-5-fluoro-2-oxo-3H-indol-(Z)-3-ylidene]-4,5,6,7-tetrahydro-1H-indole-3-carboxamide] | 27 nM
Cc1[nH]c2c(c1C(=O)NCCN1CCOCC1)CCC/C2=C1/C(=O)Nc2ccc(Cl)cc21 [I-19, N-(2-morpholinoethyl)-2-methyl-7-[1,2-dihydro-5-chloro-2-oxo-3H-indol-(Z)-3-ylidene]-4,5,6,7-tetrahydro-1H-indole-3-carboxamide] | 31 nM
CCN(CC)CCNC(=O)c1c(C)[nH]c2c1CCC/C2=C1/C(=O)Nc2ccc(C(=O)Nc3ccc(F)cc3)cc21 [I-51, N-(2-(diethylamino)ethyl)-2-methyl-7-[N-(4-fluorophenyl)-5-carboxamide-1,2-dihydro-2-oxo-3H-indol-(Z)-3-ylidene]-4,5,6,7-tetrahydro-1H-indole-3-carboxamide] | 54 nM
Cc1[nH]c2c(c1C(=O)NCCc1ccccn1)CCC/C2=C1/C(=O)Nc2ccc(F)cc21 [I-56, N-(2-(pyridin-2-yl)ethyl)-2-methyl-7-[1,2-dihydro-5-fluoro-2-oxo-3H-indol-(Z)-3-ylidene]-4,5,6,7-tetrahydro-1H-indole-3-carboxamide] | 17 nM

Now those with a lower IC50, led by results:

IC50 | Compound
13 nM | CCN(CC)CCNC(=O)c1c(C)[nH]c2c1CCC/C2=C1/C(=O)Nc2ccc(OC)cc21 [I-53, N-(2-(diethylamino)ethyl)-2-methyl-7-[1,2-dihydro-5-methoxy-2-oxo-3H-indol-(Z)-3-ylidene]-4,5,6,7-tetrahydro-1H-indole-3-carboxamide]
8 nM | CCN(CC)CCNC(=O)c1c(C)[nH]c2c1CCC/C2=C1/C(=O)Nc2ccc(NC(C)=O)cc21 [I-45]
6.8 nM | CCN(CC)CCNC(=O)c1c(C)[nH]c2c1CCC/C2=C1/C(=O)Nc2ccc(C(=O)O)cc21 [I-44, N-(2-(diethylamino)ethyl)-2-methyl-7-[1,2-dihydro-5-carboxyl-2-oxo-3H-indol-(Z)-3-ylidene]-4,5,6,7-tetrahydro-1H-indole-3-carboxamide]
13 nM | Cc1[nH]c2c(c1C(=O)N(C)CCN(C)C)CCC/C2=C1/C(=O)Nc2ccc(F)cc21 [I-57, N-(2-(dimethylamino)ethyl)-N,2-dimethyl-7-[1,2-dihydro-5-fluoro-2-oxo-3H-indol-(Z)-3-ylidene]-4,5,6,7-tetrahydro-1H-indole-3-carboxamide]
11 nM | CCN(CC)CCNC(=O)c1c(C)[nH]c2c1CCC/C2=C1/C(=O)Nc2c(C)cc(C)cc21 [I-34, N-(2-(diethylamino)ethyl)-2-methyl-7-[1,2-dihydro-5,7-dimethyl-2-oxo-3H-indol-(Z)-3-ylidene]-4,5,6,7-tetrahydro-1H-indole-3-carboxamide]
12 nM | CCN(CC)CCNC(=O)c1c(C)[nH]c2c1CCC/C2=C1/C(=O)Nc2cccc(F)c21 [I-49, N-(2-(diethylamino)ethyl)-2-methyl-7-[1,2-dihydro-4-fluoro-2-oxo-3H-indol-(Z)-3-ylidene]-4,5,6,7-tetrahydro-1H-indole-3-carboxamide]
9.1 nM | Cc1[nH]c2c(c1C(=O)NCCN1CCCCC1)CCC/C2=C1/C(=O)Nc2ccc(F)cc21 [I-26, N-(2-(piperidin-1-yl)ethyl)-2-methyl-7-[1,2-dihydro-5-fluoro-2-oxo-3H-indol-(Z)-3-ylidene]-4,5,6,7-tetrahydro-1H-indole-3-carboxamide]
6.3 nM | CCN(CC)CCNC(=O)c1c(C)[nH]c2c1CCC/C2=C1/C(=O)Nc2ccc(Br)cc21 [I-36, N-(2-(diethylamino)ethyl)-2-methyl-7-[1,2-dihydro-5-bromo-2-oxo-3H-indol-(Z)-3-ylidene]-4,5,6,7-tetrahydro-1H-indole-3-carboxamide]
11 nM | CCN(CC)CCNC(=O)c1c(C)[nH]c2c1CCC/C2=C1/C(=O)Nc2cc(Cl)ccc21 [I-46, N-(2-(diethylamino)ethyl)-2-methyl-7-[1,2-dihydro-6-chloro-2-oxo-3H-indol-(Z)-3-ylidene]-4,5,6,7-tetrahydro-1H-indole-3-carboxamide]
